Experimental data taken from patent US8859535B2, “Hydroxy substituted isoquinolinone derivatives” (Novartis AG, priority 2011, dated 2014).

Columns and labels:
Format in all cases: binding
[1] = target: T1, human MDM2 protein (amino acids 2-188) (Homo sapiens, UniProt Q00987); assay: p53-MDM2 TR-FRET assay (p53-MDM2 Assay 1); conditions: 1.25 nM MDM2-biotinylated, 10 nM Cy5-p53 peptide; read-out: IC50 (μM) of p53-Hdm2 inhibition (TR-FRET) Assay 1
T1 construct: human MDM2 protein (amino acids 2-188); made in house
T1 sequence (Q00987 2-188): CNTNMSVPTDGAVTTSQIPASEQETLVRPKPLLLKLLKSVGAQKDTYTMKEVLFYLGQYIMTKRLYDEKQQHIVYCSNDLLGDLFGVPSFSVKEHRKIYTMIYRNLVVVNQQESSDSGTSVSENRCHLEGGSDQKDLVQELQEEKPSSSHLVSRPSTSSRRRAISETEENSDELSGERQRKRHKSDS
Method in brief: (§1)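 C-terminally biotinylated MDM2 (aa 2-188, 1.25 nM) or MDM4 (aa 2-185, 2.5 nM) with Eu-streptavidin (0.625 nM), 15 min preincubation, then 10 nM Cy5-p53 peptide (aa18-26), 15 min room temperature; TR-FRET 665/620 nm ratio, IC50 by curve fit. Modified MDM2 Assay 2 uses 0.1 nM MDM2 and 0.1 nM Eu-streptavidin.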

[2] = target: T1, human MDM2 protein (amino acids 2-188); assay: p53-MDM2 TR-FRET assay, modified (p53-MDM2 Assay 2); conditions: 0.1 nM MDM2, 0.1 nM Europium labeled streptavidin; read-out: IC50 (nM) of p53-Hdm2 inhibition (TR-FRET) Assay 2
Method in brief: as §1

[3] = target: T2, human MDM4 protein (amino acids 2-185) (Homo sapiens, UniProt O15151); assay: p53-MDM4 TR-FRET assay (p53-MDM4 Assay 1); conditions: 2.5 nM MDM4-biotinylated, 10 nM Cy5-p53 peptide; read-out: IC50 (μM) of p53-Hdm4 inhibition (TR-FRET) Assay 1
T2 construct: human MDM4 protein (amino acids 2-185); made in house
T2 sequence (O15151 2-185): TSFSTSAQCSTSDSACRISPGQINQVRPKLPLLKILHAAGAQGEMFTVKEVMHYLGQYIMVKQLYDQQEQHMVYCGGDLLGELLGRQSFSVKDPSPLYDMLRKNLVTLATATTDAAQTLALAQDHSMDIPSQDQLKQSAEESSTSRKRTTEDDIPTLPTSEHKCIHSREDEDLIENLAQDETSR
Method in brief: as §1

IC50 [1] [µM] | IC50 [2] [nM] | IC50 [3] [µM] | SMILES
0.0049 | 1.97 | 8.84 | COc1cc2c(cc1OC(C)C)[C@H](c1ccc(Cl)cc1)N(c1ccc(C(C)(O)C3CC4CCC(C3)N4CC(F)(F)F)cc1)C(=O)C2 (stereo partly drawn) [Example 106, (S)-1-(4-Chloro-phenyl)-2-(4-{1-hydroxy-1-[8-(2,2,2-trifluoro-ethyl)-8-aza-bicyclo[3.2.1]oct-3-yl]-ethyl}-phenyl)-7-isopropoxy-6-methoxy-1,4-dihydro-2H-isoquinolin-3-one]
0.0028 | 1.55 | 2.48 | COc1cc2c(cc1OC(C)C)[C@H](c1ccc(Cl)cc1)N(c1ccc(C(C)(O)C3CC4CCC(C3)N4S(C)(=O)=O)cc1)C(=O)C2 (stereo partly drawn) [Example 107, (S)-1-(4-Chloro-phenyl)-2-{4-[1-hydroxy-1-(8-methanesulfonyl-8-aza-bicyclo[3.2.1]oct-3-yl)-ethyl]-phenyl}-7-isopropoxy-6-methoxy-1,4-dihydro-2H-isoquinolin-3-one]
0.0027 | 2.07 | 1.99 | COc1cc2c(cc1OC(C)C)[C@H](c1ccc(Cl)cc1)N(c1ccc(C(C)(O)C3CC4CCC(C3)N4C(=O)N(C)C)cc1)C(=O)C2 (stereo partly drawn) [Example 108, 3-(1-{4-[(S)-1-(4-Chloro-phenyl)-7-isopropoxy-6-methoxy-3-oxo-3,4-dihydro-1H-isoquinolin-2-yl]-phenyl}-1-hydroxy-ethyl)-8-aza-bicyclo[3.2.1]octane-8-carboxylic acid dimethylamide]
0.0024 | 1.7 | 2.5 | CNC(=O)N1C2CCC1CC(C(C)(O)c1ccc(N3C(=O)Cc4cc(OC)c(OC(C)C)cc4[C@@H]3c3ccc(Cl)cc3)cc1)C2 (stereo partly drawn) [Example 109, 3-(1-{4-[(S)-1-(4-Chloro-phenyl)-7-isopropoxy-6-methoxy-3-oxo-3,4-dihydro-1H-isoquinolin-2-yl]-phenyl}-1-hydroxy-ethyl)-8-aza-bicyclo[3.2.1]octane-8-carboxylic acid methylamide]
0.0021 | 1.5 | 2.55 | COc1cc2c(cc1OC(C)C)[C@H](c1ccc(Cl)cc1)N(c1ccc(C(C)(O)C3CC4CCC(C3)N4C=O)cc1)C(=O)C2 (stereo partly drawn) [Example 111, 3-(1-{4-[(S)-1-(4-Chloro-phenyl)-7-isopropoxy-6-methoxy-3-oxo-3,4-dihydro-1H-isoquinolin-2-yl]-phenyl}-1-hydroxy-ethyl)-8-aza-bicyclo[3.2.1]octane-8-carbaldehyde]
0.003 | 2.76 | 3.46 | CCN1C2CCC1CC(C(C)(O)c1ccc(N3C(=O)Cc4cc(OC)c(OC(C)C)cc4[C@@H]3c3ccc(Cl)cc3)cc1)C2 (stereo partly drawn) [Example 112, (S)-1-(4-Chloro-phenyl)-2-{4-[1-(8-ethyl-8-aza-bicyclo[3.2.1]oct-3-yl)-1-hydroxy-ethyl]-phenyl}-7-isopropoxy-6-methoxy-1,4-dihydro-2H-isoquinolin-3-one]
0.0048 | 2.52 | 4.45 | COc1cc2c(cc1OC(C)C)[C@H](c1ccc(Cl)cc1)N(c1ccc(C(C)(O)C3CC4CCC(C3)N4CCO)cc1)C(=O)C2 (stereo partly drawn) [Example 113, (S)-1-(4-Chloro-phenyl)-2-(4-{1-hydroxy-1-[8-(2-hydroxy-ethyl)-8-aza-bicyclo[3.2.1]oct-3-yl]-ethyl}-phenyl)-7-isopropoxy-6-methoxy-1,4-dihydro-2H-isoquinolin-3-one]
0.0045 | 4.76 | 4.92 | COc1cc2c(cc1OC(C)C)[C@H](c1ccc(Cl)cc1)N(c1ccc(C(C)(O)C3CC4CCC(C3)N4C(=O)CO)cc1)C(=O)C2 (stereo partly drawn) [Example 114, (S)-1-(4-Chloro-phenyl)-2-(4-{1-hydroxy-1-[8-(2-hydroxy-acetyl)-8-aza-bicyclo[3.2.1]oct-3-yl]-ethyl}-phenyl)-7-isopropoxy-6-methoxy-1,4-dihydro-2H-isoquinolin-3-one]
